From patent publication US11440904B2, “Substituted pyrimidines, pharmaceutical compositions and therapeutic methods thereof” (priority 2017, dated 2022)

Experiments:
EOL-1 cells = experiment: Cancer cell growth inhibition, EOL-1; assay type: cell-based; conditions: Homo sapiens, EOL1, 72 hr, cell viability
Protocol: (§1) In order to test certain compounds of Compounds 1 to 24 for cancer cell growth inhibition, a leukemia cancer cell line EOL-1, and triple negative breast cancer cell line MDA-MB-231 was used.
(§2) EOL-1 and MDA-MB-231 cells were cultured in a RPMI-1640 cell culture medium supplemented with 10% fetal bovine serum (FBS) and 1% penicillin/streptomycin (Gibco BRL).
(§3) The cancer cell lines stored in a liquid nitrogen tank were each quickly thawed at 37° C. water bath, and centrifuged to remove the DMSO in the freezing medium. The resulting cell pellet was mixed with a culture medium, incubated in a culture flask at 37° C. under 5% CO2 for 2 to 3 days. The EOL-1 cells were sub-cultured by 1:5˜10 dilution in fresh culture medium. For MD-MB-231 cells, the culture medium was removed and the remaining cells were washed with PBS (Phosphate Buffered Saline) and trypsinized by trypsin-EDTA. The detached cells were sub-cultured by 1:5˜10 dilution in fresh culture medium.
(§4) For the cell growth inhibition assay, the cells were seeded in 96-well cell culture plates at 5×10^4 cells/well for EOL-1 and 5×10^3 cells/well for MDA-MB-231 cells in 50 μL and incubated at 37° C. under 5% CO2 for 3 to 6 hr. before the compounds were added.
(§5) Certain compounds of Compounds 1-24 were dissolved in dimethylsulfoxide (DMSO) to a concentration of 10 mM. The DMSO solution containing test compound was diluted with a culture medium to a final concentration of 600 μM, and then diluted 100 times to 6 μM as top dose followed by 1:3 serial dilutions, and then add 50 μL diluted compounds to the 50 μL cells, with a final top dose at 3 μM and the plate was incubated at 37° C. under 5% CO2 for 72 hr. The cell viability was determined by Cell Meter™ Fluorimetric Cell Cytotoxicity Assay Kit (AAT Bioquest) according to the manufacturer's instructions. Briefly, thaw and warm up the Assay Solution (Component A) to 37° C., and mix it thoroughly. Add 20 μL/well (96-well plate) of Assay Solution (Component A). Mix the reagents by shaking the plate gently for 30 seconds. Incubate the cells in a 37° C., 5% CO2 incubator for 1-24 hr., protected from light. Monitor the fluorescence intensity (bottom read) at Ex/Em=540/590 nm. Alternatively, read the O.D. at 570 nm (the reference wavelength should be 600 nm) to determine the cell viability in each well.

[1] = target: BTK phosphorylation at tyrosine 223 (Homo sapiens (Human), UniProt Q06187); experiment: Immunoblot analysis of phospho-BTK(Y223) in Ramos cells; assay type: cell-based; conditions: 1 hr treatment, anti-IgM stimulation, western blot
Protocol: Ramos cells were cultured in RPMI-1640 medium with 10% fetal bovine serum (FBS) and 1% penicillin/streptomycin (Gibco BRL). Before the assay, Ramos cells were counted and seeded at 1×10^6 cells/mL, cultured overnight in RPMI-1640 medium with 10% FBS, the cells were centrifuged at 950 rpm for 10 min., then 1˜2×10^6 cells were split into each tube in 300 μL medium. The cells were treated with certain compounds of Compound 1-24 at 0˜3 μM for 1 hr. in 37° C., then the cells were stimulated with 10 μg/mL of anti-IgM (BioLegend) for 5 min., followed by 3 min. spin at 2000 rpm. After aspirating the supernatant, 60 μL of RIPA lysis buffer (50 mM Tris-HCl, 1 mM EDTA, 1% NP-40, 0.5% sodium deoxycholate, and 0.1% SDS, pH 7.4, 150 mM NaCl, 1 mM Na3VO4) was added to the cell pellet to lyse the cells on ice for 30 min. After spin at 10,000 rpm for 5 min., 60 μL of the cell lysate was transferred to a fresh tube, and 20 μL of 4× LDS buffer was added to the tube. The samples were boiled on a 100° C. heat block for 10 min. 25 μL lysate was loaded on to SDS-PAGE gel (NuPAGE™ Novex™ 4-12% Bis-Tris Midi Protein Gels, cat. no. WG1402BOX, ThermoFisher) for western blotting analysis per the manufacturer's instructions. Antibodies used for immunoblot analysis include Btk and p-Btk(Y223) (cat. no. 3553 and 5082; Cell Signaling Technology, Beverly, Mass.). p-Btk(Y223) (cat. no. GTX61791; GeneTex, Inc., Irvine, Calif.). Membranes were detected using infrared fluorescence dye (IRDye® 800CW Donkey anti-Rabbit IgG (H+L), cat. no. P/N 925-32213; IRDye® 680RD Donkey anti-Mouse IgG (H+L), cat. no. P/N 925-68072 and scanned on a LiCor Odyssey scanner (LiCor Biosciences, Lincoln, Nebr.).

MDA-MB-231 cells = experiment: Cancer cell growth inhibition, MDA-MB-231; assay type: cell-based; conditions: Homo sapiens, 72 hr, cell viability
Protocol: as §1, §2, §3, §4, §5

ITK = ITK (Homo sapiens (Human), UniProt Q08881); experiment: 33P ATP HotSpot kinase assay, ITK; assay type: biochemical; conditions: 10 μM ATP
Protocol: (§6) (See, e.g., Ma, et al, 2008 Expert Opin Drug Discov. 3(6): 607-621.)
(§7) Each of Compound-1 to Compound-24 was measured for its inhibitory activity on TEC family kinases, BMX and ITK. The measurement was carried out in the same process as described above, BMX, ITK enzymes were used.

BTK wt = BTK wt (Homo sapiens (Human), UniProt Q06187); experiment: 33P ATP HotSpot kinase assay, BTK wt; assay type: biochemical; conditions: 10 μM ATP
From the text: as §6

BMX = BMX (Homo sapiens (Human), UniProt P51813); experiment: 33P ATP HotSpot kinase assay, BMX; assay type: biochemical; conditions: 10 μM ATP
Protocol: as §6, §7

FAK = FAK (Homo sapiens (Human), UniProt Q05397); experiment: 33P ATP HotSpot kinase assay, FAK; conditions: read-out: IC50 FAK, 10 μM ATP
EGFR wt = EGFR wt (Homo sapiens (Human), UniProt P00533); experiment: 33P ATP HotSpot kinase assay, EGFR wt; assay type: biochemical; conditions: 10 μM ATP
Sequence of EGFR wt (P00533 25-1210): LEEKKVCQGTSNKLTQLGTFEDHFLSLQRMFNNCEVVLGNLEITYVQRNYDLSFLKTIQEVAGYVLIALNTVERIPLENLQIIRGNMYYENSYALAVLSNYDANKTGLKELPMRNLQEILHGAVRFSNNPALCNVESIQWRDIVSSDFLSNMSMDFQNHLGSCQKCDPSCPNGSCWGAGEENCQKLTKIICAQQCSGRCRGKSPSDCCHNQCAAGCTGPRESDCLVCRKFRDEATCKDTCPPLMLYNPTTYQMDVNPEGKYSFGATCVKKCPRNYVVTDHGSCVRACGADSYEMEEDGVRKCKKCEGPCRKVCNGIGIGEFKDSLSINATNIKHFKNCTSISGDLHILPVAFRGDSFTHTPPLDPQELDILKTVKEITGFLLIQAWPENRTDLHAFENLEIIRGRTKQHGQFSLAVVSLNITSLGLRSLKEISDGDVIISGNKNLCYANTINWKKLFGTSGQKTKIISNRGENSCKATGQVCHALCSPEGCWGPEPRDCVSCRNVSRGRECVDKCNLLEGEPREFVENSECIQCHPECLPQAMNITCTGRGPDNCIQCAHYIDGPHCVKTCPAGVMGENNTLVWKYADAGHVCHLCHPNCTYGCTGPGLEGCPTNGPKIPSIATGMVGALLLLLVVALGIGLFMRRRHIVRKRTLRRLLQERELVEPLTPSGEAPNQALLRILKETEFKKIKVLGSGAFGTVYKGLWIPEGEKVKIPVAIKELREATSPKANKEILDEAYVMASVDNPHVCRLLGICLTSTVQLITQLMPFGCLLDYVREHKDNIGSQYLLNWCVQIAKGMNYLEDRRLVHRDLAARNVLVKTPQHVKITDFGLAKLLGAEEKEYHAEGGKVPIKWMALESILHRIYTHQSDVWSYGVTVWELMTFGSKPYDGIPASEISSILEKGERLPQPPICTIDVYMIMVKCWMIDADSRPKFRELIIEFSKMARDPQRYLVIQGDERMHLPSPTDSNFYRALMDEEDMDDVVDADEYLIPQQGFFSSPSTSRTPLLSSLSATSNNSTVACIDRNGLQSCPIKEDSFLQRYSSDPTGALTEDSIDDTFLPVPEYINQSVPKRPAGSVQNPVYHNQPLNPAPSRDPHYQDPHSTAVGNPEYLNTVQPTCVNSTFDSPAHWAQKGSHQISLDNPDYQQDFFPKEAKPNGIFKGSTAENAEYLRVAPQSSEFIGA

Sequence of ITK (Q08881 whole entry): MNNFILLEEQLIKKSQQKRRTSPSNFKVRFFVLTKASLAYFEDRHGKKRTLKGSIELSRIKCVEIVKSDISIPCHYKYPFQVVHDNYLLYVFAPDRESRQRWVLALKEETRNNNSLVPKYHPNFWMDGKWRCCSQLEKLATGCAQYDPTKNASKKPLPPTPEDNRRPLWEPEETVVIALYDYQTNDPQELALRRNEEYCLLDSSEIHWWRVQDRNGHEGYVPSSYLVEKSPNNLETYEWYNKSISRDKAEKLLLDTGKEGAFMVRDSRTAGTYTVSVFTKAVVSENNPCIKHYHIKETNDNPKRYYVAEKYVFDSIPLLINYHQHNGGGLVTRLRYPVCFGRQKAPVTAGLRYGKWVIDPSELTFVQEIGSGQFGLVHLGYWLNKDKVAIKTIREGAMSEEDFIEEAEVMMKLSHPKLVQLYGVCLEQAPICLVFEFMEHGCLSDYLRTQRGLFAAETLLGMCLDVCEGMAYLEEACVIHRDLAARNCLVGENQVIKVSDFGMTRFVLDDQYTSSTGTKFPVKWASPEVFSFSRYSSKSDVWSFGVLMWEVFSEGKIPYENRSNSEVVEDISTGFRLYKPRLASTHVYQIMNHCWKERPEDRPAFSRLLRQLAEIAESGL
Sequence of BMX (P51813 whole entry): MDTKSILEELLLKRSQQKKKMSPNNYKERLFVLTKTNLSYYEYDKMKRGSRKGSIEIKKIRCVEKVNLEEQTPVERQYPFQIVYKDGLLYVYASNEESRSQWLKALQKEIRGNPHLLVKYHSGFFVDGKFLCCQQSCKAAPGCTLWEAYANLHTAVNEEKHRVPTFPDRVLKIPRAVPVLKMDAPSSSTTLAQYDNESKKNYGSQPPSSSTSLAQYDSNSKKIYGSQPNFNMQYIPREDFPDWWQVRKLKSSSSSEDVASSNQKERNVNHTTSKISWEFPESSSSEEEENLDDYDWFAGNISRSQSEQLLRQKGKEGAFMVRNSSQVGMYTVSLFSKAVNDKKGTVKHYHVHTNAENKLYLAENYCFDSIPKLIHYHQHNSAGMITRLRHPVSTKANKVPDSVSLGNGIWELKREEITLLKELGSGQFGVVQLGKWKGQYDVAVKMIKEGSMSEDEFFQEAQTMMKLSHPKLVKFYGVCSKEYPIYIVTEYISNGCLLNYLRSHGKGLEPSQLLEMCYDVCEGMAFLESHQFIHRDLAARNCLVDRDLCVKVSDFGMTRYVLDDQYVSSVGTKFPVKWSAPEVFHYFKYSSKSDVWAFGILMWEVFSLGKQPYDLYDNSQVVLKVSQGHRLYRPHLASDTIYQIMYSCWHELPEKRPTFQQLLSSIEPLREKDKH
Sequence of BTK wt (Q06187 whole entry): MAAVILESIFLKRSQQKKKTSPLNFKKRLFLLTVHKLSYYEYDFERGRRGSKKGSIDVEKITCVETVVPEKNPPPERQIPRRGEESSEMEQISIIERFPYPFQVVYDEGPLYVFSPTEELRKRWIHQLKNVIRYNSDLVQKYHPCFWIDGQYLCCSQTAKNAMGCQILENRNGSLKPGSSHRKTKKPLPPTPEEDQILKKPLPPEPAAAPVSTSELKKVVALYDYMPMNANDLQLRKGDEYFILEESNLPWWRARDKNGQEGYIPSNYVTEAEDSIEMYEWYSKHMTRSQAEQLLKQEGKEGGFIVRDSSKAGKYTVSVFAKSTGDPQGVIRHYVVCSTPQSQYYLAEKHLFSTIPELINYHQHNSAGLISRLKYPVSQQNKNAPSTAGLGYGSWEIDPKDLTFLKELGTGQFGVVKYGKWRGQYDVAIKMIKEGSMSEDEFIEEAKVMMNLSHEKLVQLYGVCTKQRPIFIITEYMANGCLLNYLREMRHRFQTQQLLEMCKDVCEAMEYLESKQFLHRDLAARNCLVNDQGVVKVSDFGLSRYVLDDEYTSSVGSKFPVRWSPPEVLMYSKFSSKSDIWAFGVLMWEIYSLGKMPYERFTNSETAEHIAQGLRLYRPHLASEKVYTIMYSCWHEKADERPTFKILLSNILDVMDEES
Sequence of BTK phosphorylation at tyrosine 223 (Q06187 whole entry): as above
Sequence of FAK (Q05397 whole entry): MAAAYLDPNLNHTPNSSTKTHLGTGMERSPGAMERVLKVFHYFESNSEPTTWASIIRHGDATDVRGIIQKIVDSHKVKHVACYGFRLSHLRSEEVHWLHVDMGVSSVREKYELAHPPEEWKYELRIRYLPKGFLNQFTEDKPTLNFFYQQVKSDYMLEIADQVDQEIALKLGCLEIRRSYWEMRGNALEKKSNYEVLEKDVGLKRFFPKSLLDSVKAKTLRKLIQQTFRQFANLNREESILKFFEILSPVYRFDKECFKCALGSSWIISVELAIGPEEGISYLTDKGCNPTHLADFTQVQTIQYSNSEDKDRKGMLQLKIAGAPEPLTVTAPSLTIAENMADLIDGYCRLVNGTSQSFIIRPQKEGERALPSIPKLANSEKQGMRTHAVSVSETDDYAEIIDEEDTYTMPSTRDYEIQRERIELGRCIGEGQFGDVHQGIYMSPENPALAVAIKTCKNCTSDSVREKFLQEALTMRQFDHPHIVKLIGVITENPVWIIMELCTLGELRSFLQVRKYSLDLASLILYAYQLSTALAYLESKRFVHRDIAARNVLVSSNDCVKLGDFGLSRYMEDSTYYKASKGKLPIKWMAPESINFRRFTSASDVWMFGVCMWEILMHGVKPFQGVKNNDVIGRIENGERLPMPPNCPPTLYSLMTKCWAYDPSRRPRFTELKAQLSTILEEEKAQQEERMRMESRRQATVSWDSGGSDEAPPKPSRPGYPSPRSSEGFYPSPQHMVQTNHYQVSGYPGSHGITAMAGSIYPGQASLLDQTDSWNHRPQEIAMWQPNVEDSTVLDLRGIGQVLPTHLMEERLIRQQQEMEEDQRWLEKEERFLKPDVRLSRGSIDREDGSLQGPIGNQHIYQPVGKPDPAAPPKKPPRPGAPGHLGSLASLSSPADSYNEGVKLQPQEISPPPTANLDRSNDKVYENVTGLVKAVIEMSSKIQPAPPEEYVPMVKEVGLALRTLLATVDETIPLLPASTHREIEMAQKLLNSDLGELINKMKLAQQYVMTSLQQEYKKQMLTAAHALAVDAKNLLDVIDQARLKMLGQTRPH

Row | IC50 (EOL-1 cells) [nM] | EC50 [1] [nM] | IC50 (MDA-MB-231 cells) [nM] | IC50 (ITK) [nM] | IC50 (BTK wt) [nM] | IC50 (BMX) [nM] | IC50 (FAK) [nM] | IC50 (EGFR wt) [nM] | SMILES
1 | 1200 | – | > 3000 | – | 21.4 | – | 42.4 | > 1000 | c1cc(Nc2nc(Nc3ccc4c(c3)OCCOCCOCCO4)nc3[nH]cnc23)c2cc[nH]c2c1 [Compound-22, N6-(1H-indol-4-yl)-N2-(2,5,8,11-tetraoxabicyclo[10.4.0]hexadeca-1(12),13,15-trien-14-yl)-9H-purine-2,6-diamine]
2 | – | – | – | – | 62.8 | – | 257 | > 1000 | c1cc(Nc2nc(Nc3ccc4c(c3)OCCOCCOCCO4)nc3[nH]cnc23)c2[nH]ccc2c1 [Compound-23, N6-(1H-indol-7-yl)-N2-(2,5,8,11-tetraoxabicyclo[10.4.0]hexadeca-1(12),13,15-trien-14-yl)-9H-purine-2,6-diamine]
3 | – | – | – | – | 33.3 | – | – | – | C=CC(=O)Nc1cc(C)ccc1Nc1nc(Nc2ccc3c(c2)OCCOCCOCCO3)nc2[nH]ncc12 [Compound-26, N-[5-methyl-2-[[6-(2,5,8,11-tetraoxabicyclo[10.4.0]hexadeca-1(12),13,15-trien-14-ylamino)-1H-pyrazolo[3,4-d]pyrimidin-4-yl]amino]phenyl]prop-2-enamide]
4 | – | – | – | – | 16.8 | – | – | – | CC(=O)Nc1cc(C)ccc1Nc1nc(Nc2ccc3c(c2)OCCOCCOCCO3)nc2[nH]cnc12 [Compound-27, N-[5-methyl-2-[[2-(2,5,8,11-tetraoxabicyclo[10.4.0]hexadeca-1(12),13,15-trien-14-ylamino)-9H-purin-6-yl]amino]phenyl]acetamide]
5 | – | – | – | – | 9.37 | – | – | – | CC(=O)Nc1cc(F)ccc1Nc1nc(Nc2ccc3c(c2)OCCOCCOCCO3)nc2[nH]cnc12 [Compound-28, N-[5-fluoro-2-[[2-(2,5,8,11-tetraoxabicyclo[10.4.0]hexadeca-1(12),13,15-trien-14-ylamino)-9H-purin-6-yl]amino]phenyl]acetamide]
6 | – | – | – | – | 67.1 | – | – | – | CC(=O)Nc1cc(C(F)(F)F)ccc1Nc1nc(Nc2ccc3c(c2)OCCOCCOCCO3)nc2[nH]cnc12 [Compound-29, N-[2-[[2-(2,5,8,11-tetraoxabicyclo[10.4.0]hexadeca-1(12),13,15-trien-14-ylamino)-9H-purin-6-yl]amino]-5-(trifluoromethyl)phenyl]acetamide]
7 | – | – | – | – | 613 | – | > 1000 | – | C=CC(=O)Nc1cccc(-c2nc(Nc3ccc4c(c3)OCCOCCOCCO4)ncc2F)c1 [Compound-30, N-[3-[5-fluoro-2-(2,5,8,11-tetraoxabicyclo[10.4.0]hexadeca-1(12),13,15-trien-14-ylamino)pyrimidin-4-yl]phenyl]prop-2-enamide]
8 | – | – | – | – | 198 | – | – | – | CN([C@@H]1c2ccccc2C[C@H]1Oc1nc(Nc2ccc3c(c2)OCCOCCOCCO3)nc2[nH]cnc12)S(C)(=O)=O [Compound-31, N-methyl-N-[(1R,2R)-2-[[2-(2,5,8,11-tetraoxabicyclo[10.4.0]hexadeca-1(12),13,15-trien-14-ylamino)-9H-purin-6-yl]oxy]indan-1-yl]methanesulfonamide]
9 | – | – | – | – | > 10000 | – | – | – | CN([C@@H]1c2ccccc2C[C@H]1Oc1cc(Nc2ccc3c(c2)OCCOCCOCCO3)ncc1C(F)(F)F)S(C)(=O)=O [Compound-32, N-methyl-N-[(1R,2R)-2-[[2-(2,5,8,11-tetraoxabicyclo[10.4.0]hexadeca-1(12),13,15-trien-14-ylamino)-5-(trifluoromethyl)-4-pyridyl]oxy]indan-1-yl]methanesulfonamide]

The remaining lines, values behind:

Row | SMILES | IC50 (EOL-1 cells) [nM] | EC50 [1] [nM] | IC50 (MDA-MB-231 cells) [nM] | IC50 (ITK) [nM] | IC50 (BTK wt) [nM] | IC50 (BMX) [nM] | IC50 (FAK) [nM] | IC50 (EGFR wt) [nM]
10 | C=CC(=O)N1CCC[C@@H](Nc2nc(Nc3ccc(OCCCOC4(CC)OCC(C)(C)CO4)cc3)ncc2F)C1 [Compound-1, 1-[(3R)-3-[[2-[4-[3-[(2-ethyl-5,5-dimethyl-1,3-dioxan-2-yl)oxy]propoxy]anilino]-5-fluoro-pyrimidin-4-yl]amino]-1-piperidyl]prop-2-en-1-one] | > 3000 | 100 to 1000 | > 3000 | – | – | – | – | –
11 | CCC(=O)N1CCC[C@@H](Nc2nc(Nc3ccc4c(c3)OCCOCCOCCO4)nc3[nH]cnc23)C1 [Compound-4, 1-[(3R)-3-[[2-(2,5,8,11-tetraoxabicyclo[10.4.0]hexadeca-1(12),13,15-trien-14-ylamino)-9H-purin-6-yl]amino]-1-piperidyl]propan-1-one] | – | 100 to 1000 | – | 1450 | 144 | 19.6 | 1150 | –
12 | C=CC(=O)Nc1cccc(Nc2nc(Nc3ccc4c(c3)OCCOCCOCCO4)ncc2F)c1 [Compound-6, N-[3-[[5-fluoro-2-(2,5,8,11-tetraoxabicyclo[10.4.0]hexadeca-1(12),13,15-trien-14-ylamino)pyrimidin-4-yl]amino]phenyl]prop-2-enamide] | – | < 100 | – | < 100 | < 100 | < 100 | > 1000 | 732
13 | CCC(=O)Nc1cccc(Nc2nc(Nc3ccc4c(c3)OCCOCCOCCO4)nc3[nH]cnc23)c1 [Compound-8, N-[3-[[2-(2,5,8,11-tetraoxabicyclo[10.4.0]hexadeca-1(12),13,15-trien-14-ylamino)-9H-purin-6-yl]amino]phenyl]propanamide] | – | 100 to 1000 | – | 1290 | 88.8 | 46.4 | 1130 | > 1000
14 | CN([C@@H]1CCCC[C@H]1Oc1nc(Nc2ccc3c(c2)OCCOCCOCCO3)nc2[nH]ccc12)S(C)(=O)=O [Compound-16, N-methyl-N-[(1R,2R)-2-[[2-(2,5,8,11-tetraoxabicyclo[10.4.0]hexadeca-1(16),12,14-trien-14-ylamino)-7H-pyrrolo[2,3-d]pyrimidin-4-yl]oxy]cyclohexyl]methanesulfonamide] | 2000 | – | 3000 | – | > 1000 | – | 34.9 | > 1000
15 | CN(C1CCCC1Oc1nc(Nc2ccc3c(c2)OCCOCCOCCO3)nc2[nH]ccc12)S(C)(=O)=O (stereo not drawn) [Compound-18, N-methyl-N-[2-[[2-(2,5,8,11-tetraoxabicyclo[10.4.0]hexadeca-1(16),12,14-trien-14-ylamino)-7H-pyrrolo[2,3-d]pyrimidin-4-yl]oxy]cyclopentyl]methanesulfonamide] | 750 | – | 1500 | – | > 1000 | – | – | > 1000
